We go through two molecules from patent US6440387B1, “Methods for determining risk of Alzheimer's disease” (Children's Medical Center Corporation, priority 1998, dated 2002).

One test has as its system Aβ levels in the brain. The test is described as follows: Dietary cholesterol and Aβ levels in rat cerebral cortex. It is filed as in vivo. Particulars: 20 month old rats, high cholesterol diet (5% cholesterol) vs low cholesterol diet (0.1% cholesterol), 10 weeks.
The test system of test [1] is Aβ production by human cortical neurons. Put plainly: Effect of HMG CoA reductase inhibitors on Aβ levels in human cortical neuronal cultures. Particulars: 100 μM, 48 hours. It counts as cell-based. The method, then: Busciglio et al., (1993) Proc. Nat. Acad. Sci. 90, 2092-2096, described the production of Aβ by human cortical neurons in culture . To determine whether cholesterol can affect the production of Aβ, primary human brain cultures were established from the cortex of 16-20 week fetal abortuses, and the neurons incubated in the absence or presence of very low density lipoprotein (VLDL), low density lipoprotein (LDL) or high density lipoprotein (HDL) particles isolated from human plasma. These lipoprotein particles are the physiological vehicles for the transport of cholesterol to cells. The effects of the different lipoprotein particles on the levels of Aβ in the human cortical cultures was determined. The human cortical cultures were maintained in serum-free Dulbecco's Modified Eagle's Medium (DMEM) with N2 supplements (a serum-free supplement that supports neuronal viability). The medium was then changed to the same medium (controls) or medium supplemented with VLDL, LDL, or HDL particles. After incubation for 48-72 hours, Aβ was measured by immunoprecipitation of the culture medium with a polyclonal antibody to Aβ (B12), followed by Western blotting with a mohoclonal antibody to Aβ (6E10). […] The bands corresponding to the 40 and 42 amino acid form of Aβ were analyzed quantitatively using a computer software program. […]

Protocol for Aβ levels in the brain: These experiments were performed on 20 month old rats. The rats were fed a low cholesterol diet (0.1% cholesterol) or a high cholesterol diet (5% cholesterol). After 10 weeks, the animals were sacrificed and the cortex was removed for measurement of Aβ levels. Aβ was assayed by immunoprecipitating cortical homogenates with the Aβ antibody B12, followed by Western blotting with the commercially available Aβ monoclonal antibody 4G8.

Consider `CC(C)CCC[C@@H](C)[C@H]1CC[C@H]2[C@@H]3CC=C4C[C@@H](O)CC[C@]4(C)[C@H]3CC[C@]12C` [cholesterol], for which the “increase in Aβ levels in rat cerebral cortex” value in the test on Aβ levels in the brain was “about 50%”.
Consider `CC[C@H](C)C(=O)O[C@H]1C[C@@H](C)C=C2C=C[C@H](C)[C@H](CC[C@@H]3C[C@@H](O)CC(=O)O3)[C@H]21` [lovastatin], for which the “levels of Aβ relative to controls” value in test [1] was “significantly decreased levels of Aβ”.
